# Data as given in EPA's ToxValDB 9.5.
# Tested on: Monkey
# Conditions: short-term; duration: 29 days; oral; capsule; M; Cynomolgus; blood: basophils + blood: eosinophils + blood: lymphocytes + blood: monocytes + blood: reticulocytes + blood: segmented neutrophils + blood…
smiles,measurement,value
O=C([O-])C(F)(F)C(F)(F)C(F)(F)C(F)(F)C(F)(F)C(F)(F)C(F)(F)F.[NH4+] [Ammonium perfluorooctanoate],NOEL,20 mg/kg-day
